According to PubChem BioAssay (NCI):
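GI50 is the concentration that inhibits growth by half. At the TGI there is no net growth.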

How the values were obtained:
Assay in all cases: DTP human tumour cell line panel, 384-well format
NCI-H522 lung = test system: NCI-H522 lung
TK-10 renal = test system: TK-10 renal
MDA-MB-231 breast = test system: MDA-MB-231 breast
SK-OV-3 ovarian = test system: SK-OV-3 ovarian
HL-60(TB) leukemia = test system: HL-60(TB) leukemia
NCI/ADR-RES ovarian = test system: NCI/ADR-RES ovarian
SF-539 CNS = test system: SF-539 CNS
786-0 renal = test system: 786-0 renal
A498 renal = test system: A498 renal
BT-549 breast = test system: BT-549 breast
DU-145 prostate = test system: DU-145 prostate
HOP-92 NSCLC = test system: HOP-92 NSCLC
SF-295 CNS = test system: SF-295 CNS
HCC-2998 colon = test system: HCC-2998 colon
OVCAR-8 ovarian = test system: OVCAR-8 ovarian
T-47D breast = test system: T-47D breast
U251 glioblastoma = test system: U251 glioblastoma
CCRF-CEM leukemia = test system: CCRF-CEM leukemia
MDA-MB-435 melanoma = test system: MDA-MB-435 melanoma
MOLT-4 leukemia = test system: MOLT-4 leukemia
PC-3 prostate = test system: PC-3 prostate
RPMI-8226 leukemia = test system: RPMI-8226 leukemia
LOX IMVI melanoma = test system: LOX IMVI melanoma
HCT-116 colon = test system: HCT-116 colon
KM12 colon = test system: KM12 colon
SN12C renal = test system: SN12C renal
HT29 colon = test system: HT29 colon
OVCAR-5 ovarian = test system: OVCAR-5 ovarian
NCI-H460 NSCLC = test system: NCI-H460 NSCLC
SNB-19 CNS = test system: SNB-19 CNS
SK-MEL-28 melanoma = test system: SK-MEL-28 melanoma
UO-31 renal = test system: UO-31 renal
HCT-15 colon = test system: HCT-15 colon
HS 578T breast = test system: HS 578T breast
NCI-H226 lung = test system: NCI-H226 lung
MALME-3M melanoma = test system: MALME-3M melanoma
K-562 leukemia = test system: K-562 leukemia
EKVX NSCLC = test system: EKVX NSCLC
OVCAR-4 ovarian = test system: OVCAR-4 ovarian
CAKI-1 renal = test system: CAKI-1 renal
NCI-H322M lung = test system: NCI-H322M lung
UACC-257 melanoma = test system: UACC-257 melanoma
RXF 393 renal = test system: RXF 393 renal
IGROV1 ovarian = test system: IGROV1 ovarian
SW-620 colon = test system: SW-620 colon
SF-268 CNS = test system: SF-268 CNS
M14 melanoma = test system: M14 melanoma
MDA-MB-468 breast = test system: MDA-MB-468 breast
COLO 205 colon = test system: COLO 205 colon
A549 NSCLC = test system: A549 NSCLC
SR leukemia = test system: SR leukemia
NCI-H23 lung = test system: NCI-H23 lung
SNB-75 CNS = test system: SNB-75 CNS
MCF7 breast = test system: MCF7 breast
SK-MEL-5 melanoma = test system: SK-MEL-5 melanoma
ACHN renal = test system: ACHN renal
HOP-62 NSCLC = test system: HOP-62 NSCLC
OVCAR-3 ovarian = test system: OVCAR-3 ovarian

O=C(N[C@@H](Cc1coc2ccccc12)B(O)O)[C@@H]1C[C@H]2CC[C@@H]1O2 showed a GI50 (NCI-H522 lung) of 2 µM, a TGI (NCI-H522 lung) of 4.74 µM and a GI50 (TK-10 renal) of 1.84 µM. The TGI (TK-10 renal) was 4.86 µM, the GI50 (MDA-MB-231 breast) was 4.86 µM and the TGI (MDA-MB-231 breast) was 23.3 µM. For the same molecule, the GI50 (SK-OV-3 ovarian) was 4.71 µM, the TGI (SK-OV-3 ovarian) was 55.7 µM and the GI50 (HL-60(TB) leukemia) was 0.355 µM. For the same molecule, the TGI (HL-60(TB) leukemia) was 1.36 µM, the GI50 (NCI/ADR-RES ovarian) was 34.8 µM and the TGI (NCI/ADR-RES ovarian) was greater than 100 µM. It also gave a GI50 (SF-539 CNS) of 1.51 µM, a TGI (SF-539 CNS) of 2.92 µM and a GI50 ([…]-0 renal) of 2.74 µM. The TGI (786-0 renal) was 13.9 µM, the GI50 (A498 renal) was 1.62 µM and the TGI (A498 renal) was 5.91 µM. For the same molecule, the GI50 (BT-549 breast) was 2.26 µM, the TGI (BT-549 breast) was 5.49 µM and the GI50 (DU-145 prostate) was 4.28 µM. The TGI (DU-145 prostate) was greater than 100 µM, the GI50 (HOP-92 NSCLC) was 13.9 µM and the TGI (HOP-92 NSCLC) was 77.7 µM. The GI50 (SF-295 CNS) was 1.49 µM, the TGI (SF-295 CNS) was 4.35 µM and the GI50 (HCC-2998 colon) was 4.45 µM. The TGI (HCC-2998 colon) was 20.9 µM, the GI50 (OVCAR-8 ovarian) was 30.9 µM and the TGI (OVCAR-8 ovarian) was greater than 100 µM. It also gave a GI50 (T-47D breast) of 5.11 µM, a TGI (T-47D breast) of 45.8 µM and a GI50 (U251 glioblastoma) of 14.8 µM. For the same molecule, the TGI (U251 glioblastoma) was 52.5 µM, the GI50 (CCRF-CEM leukemia) was 0.197 µM and the TGI (CCRF-CEM leukemia) was 0.504 µM. It also gave a GI50 (MDA-MB-435 melanoma) of 1.45 µM, a TGI (MDA-MB-435 melanoma) of 2.99 µM and a GI50 (MOLT-4 leukemia) of 0.277 µM. For the same molecule, the TGI (MOLT-4 leukemia) was 1.13 µM, the GI50 (PC-3 prostate) was 27.6 µM and the TGI (PC-3 prostate) was greater than 100 µM. It also gave a GI50 (RPMI-8226 leukemia) of 0.173 µM, a TGI (RPMI-8226 leukemia) of 0.359 µM and a GI50 (LOX IMVI melanoma) of 3.99 µM. The TGI (LOX IMVI melanoma) was 16.8 µM, the GI50 (HCT-116 colon) was 2.08 µM and the TGI (HCT-116 colon) was 8.46 µM. The GI50 (KM12 colon) was 5.64 µM, the TGI (KM12 colon) was 23.2 µM and the GI50 (SN12C renal) was 10.7 µM. The TGI (SN12C renal) was greater than 100 µM, the GI50 (HT29 colon) was 1.83 µM and the TGI (HT29 colon) was 4.44 µM. It also gave a GI50 (OVCAR-5 ovarian) of 8.44 µM, a TGI (OVCAR-5 ovarian) greater than 100 µM and a GI50 (NCI-H460 NSCLC) of 16.7 µM. For the same molecule, the TGI (NCI-H460 NSCLC) was greater than 100 µM, the GI50 (SNB-19 CNS) was 4.7 µM and the TGI (SNB-19 CNS) was 23.1 µM. It also gave a GI50 (SK-MEL-28 melanoma) of 1.33 µM, a TGI (SK-MEL-28 melanoma) of 4.17 µM and a GI50 (UO-31 renal) of 3.36 µM. For the same molecule, the TGI (UO-31 renal) was 13.4 µM, the GI50 (HCT-15 colon) was 4.26 µM and the TGI (HCT-15 colon) was 15.3 µM. For the same molecule, the GI50 (HS 578T breast) was 1.8 µM, the TGI (HS 578T breast) was 3.69 µM and the GI50 (NCI-H226 lung) was 0.163 µM. The TGI (NCI-H226 lung) was 0.439 µM, the GI50 (MALME-3M melanoma) was 1.17 µM and the TGI (MALME-3M melanoma) was 3.19 µM. The GI50 (K-562 leukemia) was 7.21 µM, the TGI (K-562 leukemia) was greater than 100 µM and the GI50 (EKVX NSCLC) was 6.89 µM. It also gave a TGI (EKVX NSCLC) of 91.9 µM, a GI50 (OVCAR-4 ovarian) of 7.3 µM and a TGI (OVCAR-4 ovarian) of 60.6 µM. It also gave a GI50 (CAKI-1 renal) of 3.24 µM, a TGI (CAKI-1 renal) greater than 100 µM and a GI50 (NCI-H322M lung) of 44.8 µM. For the same molecule, the TGI (NCI-H322M lung) was greater than 100 µM, the GI50 (UACC-257 melanoma) was 1.44 µM and the TGI (UACC-257 melanoma) was 5.25 µM. It also gave a GI50 (RXF 393 renal) of 1.22 µM, a TGI (RXF 393 renal) of 2.91 µM and a GI50 (IGROV1 ovarian) of 18.6 µM. It also gave a TGI (IGROV1 ovarian) of 92.1 µM, a GI50 (SW-620 colon) of 1.81 µM and a TGI (SW-620 colon) of 3.83 µM. For the same molecule, the GI50 (SF-268 CNS) was 2.45 µM, the TGI (SF-268 CNS) was 7.43 µM and the GI50 (M14 melanoma) was 2.73 µM. For the same molecule, the TGI (M14 melanoma) was 9.07 µM, the GI50 (MDA-MB-468 breast) was 2.29 µM and the TGI (MDA-MB-468 breast) was 9.43 µM. The GI50 (COLO 205 colon) was 21.2 µM, the TGI (COLO 205 colon) was greater than 100 µM and the GI50 (A549 NSCLC) was 10.7 µM. For the same molecule, the TGI (A549 NSCLC) was greater than 100 µM, the GI50 (SR leukemia) was 0.219 µM and the TGI (SR leukemia) was 0.605 µM. For the same molecule, the GI50 (NCI-H23 lung) was 3.7 µM, the TGI (NCI-H23 lung) was 27.3 µM and the GI50 (SNB-75 CNS) was 2.99 µM. For the same molecule, the TGI (SNB-75 CNS) was 11.2 µM, the GI50 (MCF7 breast) was 1.68 µM and the TGI (MCF7 breast) was greater than 100 µM. It also gave a GI50 (SK-MEL-5 melanoma) of 2.36 µM, a TGI (SK-MEL-5 melanoma) of 7.59 µM and a GI50 (ACHN renal) of 1.09 µM. It also gave a TGI (ACHN renal) greater than 100 µM, a GI50 (HOP-62 NSCLC) of 3.87 µM and a TGI (HOP-62 NSCLC) of 17.1 µM. It also gave a GI50 (OVCAR-3 ovarian) of 1.38 µM and a TGI (OVCAR-3 ovarian) of 3.8 µM.
